Assay results as given in patent US20240026461A1, “BCL10 MUTATIONS AS BIOMARKERS FOR TARGETED THERAPY IN B CELL LYMPHOMAS” (priority 2022, published 2024).

Columns and labels:
OCI-LY10^E140X = assay: Growth inhibition assay (CellTiter Glo), OCI-Ly10 cells expressing BCL10 E140X; type: cell-based; settings: Homo sapiens, 96 h, read-out: IC50, growth inhibition, MALT1 inhibitors
Description: DLBCL cell lines were cultured in exponential condition and the cell growth was determined by CellTiter Glo (Promega). 3000-5000 cells were seeded and cultured in each well of 384 well plate for 96 h and treated with compounds every 48 h. Luminescence was read at the endpoint with the Synergy NEO microplate reader (BioTek). The value of compound treated cells was normalized to their vehicle treated controls and then used to calculate IC50 in GraphPad Prism (RRID:SCR_002798).
Given the distinct functional profiles, CARD11 dependencies, and MALT1 activation effects of the BCL10 CARD and truncation mutants, the inventors designed experiments to evaluate whether, and to what extent, these mutant BCL10 proteins might confer BTK inhibitor resistance. Isogenic ABC-DLBCL cells expressing BCL10WT, BCL10^R58Q and BCL10^E140X proteins were treated with escalating doses of three chemically distinct covalent BTK inhibitors: ibrutinib, acalabrutinib, or zanubrutinib. The cellular proliferation rates of the treated cells were measured using an ATP fluorescence assay after 96 hours of drug exposure.
Isogenic BCL10^WT, BCL10^R58Q and BCL10^E140X ABC-DLBCLs were exposed to increasing concentrations of each of these compounds for 96 hours.

[1] = target: T1, full-length MALT1 protein (Strep-MALT1(1-824)-His) (Homo sapiens, UniProt Q9UDY8); assay: Biochemical evaluation of MALT1 protease activity (Ac-LRSR-AMC cleavage); settings: preincubated 50 min at RT, substrate Ac-LRSR-AMC 4 h; read-out: IC50, MALT1 enzyme
T1 construct: full-length MALT1 protein (Strep-MALT1(1-824)-His); Strep (N); His (C); made in house; host or cells: baculovirus-infected insect cells
Description: FIG. 21A. Chemical structure of JNJ-67690246. FIG. 21B. IC50 values for JNJ-67690246 in biochemical enzymatic and cellular cytokine secretion assays. MALT1 proteolytic IC50: purified recombinant MALT1 was preincubated for 50 min at RT with JNJ-67690246, substrate Ac-LRSR-AMC was then incubated for 4 h. MALT1 proteolytic activity was determined by measuring the increase of AMC fluorescence. […] FIG. 21C. Table for IC50 values of three different MALT1 inhibitors measured in HBL1 and OCI-Ly10 cells expressing WT and mutant BCL10. D-F. MALT1 activity measured in OCI-Ly10 GloSensor reporter cells treated with MALT1 inhibitors. […] FIG. 21G-I. NF-κB activity measured in NF-κB-RE-luciferase reporter cell lines treated with MALT1 inhibitors. […]
MALT1 protease activity was assessed in vitro using full-length MALT1 protein (Strep-MALT1(1-824)-His) purified from baculovirus-infected insect cells. […] Cleavage of AMC from the arginine residue results in an increase in coumarin fluorescence measured at 460 nm (excitation 355 nm). […] Substrate was added and the reaction was then incubated for 4 h at RT, after which fluorescence was measured.
MALT1 protease activity was assessed in vitro using full-length MALT1 protein (Strep-MALT1 (1-824)-His) purified from baculovirus-infected insect cells. […] Cleavage of AMC from the arginine residue results in an increase in coumarin fluorescence measured at 460 nm (excitation 355 nm). […]

T1 sequence (Q9UDY8 whole entry): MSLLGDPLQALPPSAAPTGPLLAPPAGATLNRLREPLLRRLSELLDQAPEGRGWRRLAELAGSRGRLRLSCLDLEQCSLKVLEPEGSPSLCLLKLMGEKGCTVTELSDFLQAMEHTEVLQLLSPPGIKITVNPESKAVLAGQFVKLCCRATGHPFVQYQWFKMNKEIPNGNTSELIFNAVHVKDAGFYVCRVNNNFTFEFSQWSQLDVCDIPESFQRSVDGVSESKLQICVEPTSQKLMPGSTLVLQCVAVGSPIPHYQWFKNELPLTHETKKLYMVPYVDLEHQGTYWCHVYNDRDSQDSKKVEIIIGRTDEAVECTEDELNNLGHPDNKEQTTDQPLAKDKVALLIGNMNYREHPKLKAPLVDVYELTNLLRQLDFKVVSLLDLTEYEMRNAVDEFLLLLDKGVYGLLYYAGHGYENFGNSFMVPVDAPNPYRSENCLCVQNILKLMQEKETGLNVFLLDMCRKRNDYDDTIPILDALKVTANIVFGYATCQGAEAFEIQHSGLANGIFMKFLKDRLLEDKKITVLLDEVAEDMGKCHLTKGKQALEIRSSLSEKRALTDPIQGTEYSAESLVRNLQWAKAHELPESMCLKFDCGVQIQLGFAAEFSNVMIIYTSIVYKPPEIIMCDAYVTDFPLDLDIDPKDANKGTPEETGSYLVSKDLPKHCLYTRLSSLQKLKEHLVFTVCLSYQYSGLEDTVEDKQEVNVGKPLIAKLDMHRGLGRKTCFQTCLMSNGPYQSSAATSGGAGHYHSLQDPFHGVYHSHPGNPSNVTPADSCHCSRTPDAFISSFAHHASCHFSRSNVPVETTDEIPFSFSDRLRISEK

IC50 (OCI-LY10^E140X): 270 ± 20 nM
IC50 [1]: 15 nM
Structure (SMILES): Cc1nc(-n2nccn2)c(Cl)cc1NC(=O)c1cnn(-c2cccc3c(=O)[nH]ccc23)c1C(F)(F)F [JNJ-67690246]
